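Exposure lasted 48 hours, with cells grown in 96-well plates and compounds tested at five concentrations. The concentration for 50% growth inhibition is given as GI50.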 Activity calls are given as the source filed them. No stated cut-off is given here; in the data, active = GI50 up to about 1.1 µM and inactive = higher.
What was measured:
Assay in all cases: NCI-60 cell line screen, 48 h
HCT-116 = test system: HCT-116
UO-31 = test system: UO-31
SF-268 = test system: SF-268
HT-29 = test system: HT-29
RPMI-8226 = test system: RPMI-8226
LOX IMVI = test system: LOX IMVI
SNB-75 = test system: SNB-75
MOLT-4 = test system: MOLT-4
ACHN = test system: ACHN
NCI-H522 = test system: NCI-H522
RXF 631 = test system: RXF 631
CCRF-CEM = test system: CCRF-CEM
SK-OV-3 = test system: SK-OV-3
K562 = test system: K562
KM-20L2 = test system: KM-20L2
SF-539 = test system: SF-539
A498 = test system: A498
LXFL 529 = test system: LXFL 529
NCI-H460 = test system: NCI-H460
EKVX = test system: EKVX
DMS-114 = test system: DMS-114
HCC 2998 = test system: HCC 2998
UACC-257 = test system: UACC-257
KM12 = test system: KM12
SNB-19 = test system: SNB-19
NCI-H23 = test system: NCI-H23
HOP-92 = test system: HOP-92
NCI-H226 = test system: NCI-H226
HOP-62 = test system: HOP-62
DLD-1 = test system: DLD-1
M14 = test system: M14
SF-295 = test system: SF-295
HOP-18 = test system: HOP-18
DMS-273 = test system: DMS-273
HL-60 = test system: HL-60
HCT-15 = test system: HCT-15
786-0 = test system: 786-0
RXF 393 = test system: RXF 393
Malme-3M = test system: Malme-3M
U-251 = test system: U-251
OVCAR-4 = test system: OVCAR-4
IGROV-1 = test system: IGROV-1
SNB-78 = test system: SNB-78
XF498 = test system: XF498
SW-620 = test system: SW-620
OVCAR-5 = test system: OVCAR-5
OVCAR-3 = test system: OVCAR-3
SN12C = test system: SN12C
COLO 205 = test system: COLO 205
UACC-62 = test system: UACC-62
CAKI-1 = test system: CAKI-1
SK-MEL-28 = test system: SK-MEL-28
A549 = test system: A549
OVCAR-8 = test system: OVCAR-8
SR = test system: SR
SK-MEL-2 = test system: SK-MEL-2
TK-10 = test system: TK-10
SK-MEL-5 = test system: SK-MEL-5
M19-MEL = test system: M19-MEL

For `Cc1cccc(Cl)c1NC(=O)c1cccc([N+](=O)[O-])c1O`, the GI50 (HCT-116) was 43.3 µM (inactive), the GI50 (UO-31) was 19.8 µM (inactive) and the GI50 (SF-268) was 31.8 µM (inactive). The GI50 (HT-29) was 41.8 µM (inactive), the GI50 (RPMI-8226) was 21.2 µM (inactive) and the GI50 (LOX IMVI) was 27.5 µM (inactive). For the same molecule, the GI50 (SNB-75) was 33.9 µM (inactive), the GI50 (MOLT-4) was 29.2 µM (inactive) and the GI50 (ACHN) was 31.9 µM (inactive). For the same molecule, the GI50 (NCI-H522) was 20.4 µM (inactive), the GI50 (RXF 631) was 36.7 µM (inactive) and the GI50 (CCRF-CEM) was 73.5 µM (inactive). For the same molecule, the GI50 (SK-OV-3) was 43.2 µM (inactive), the GI50 (K562) was 36.7 µM (inactive) and the GI50 (KM-20L2) was 41.4 µM (inactive). For the same molecule, the GI50 (SF-539) was 26.8 µM (inactive), the GI50 (A498) was 33 µM (inactive) and the GI50 (LXFL 529) was 50.6 µM (inactive). For the same molecule, the GI50 (NCI-H460) was 29 µM (inactive), the GI50 (EKVX) was 39.6 µM (inactive) and the GI50 (DMS-114) was 25.8 µM (inactive). For the same molecule, the GI50 (HCC 2998) was 31.7 µM (inactive), the GI50 (UACC-257) was 28.4 µM (inactive) and the GI50 (KM12) was 21.3 µM (inactive). For the same molecule, the GI50 (SNB-19) was 38.5 µM (inactive), the GI50 (NCI-H23) was 28.1 µM (inactive) and the GI50 (HOP-92) was 23 µM (inactive). For the same molecule, the GI50 (NCI-H226) was 22.2 µM (inactive), the GI50 (HOP-62) was 20.1 µM (inactive) and the GI50 (DLD-1) was 31.7 µM (inactive). The GI50 (M14) was 43.8 µM (inactive), the GI50 (SF-295) was 28.9 µM (inactive) and the GI50 (HOP-18) was 28.5 µM (inactive). For the same molecule, the GI50 (DMS-273) was 37.2 µM (inactive), the GI50 (HL-60) was > 10 µM (inactive) and the GI50 (HCT-15) was 35.6 µM. For the same molecule, the GI50 (786-0) was 56 µM (inactive), the GI50 (RXF 393) was 16.7 µM (inactive) and the GI50 (Malme-3M) was 27 µM (inactive). For the same molecule, the GI50 (U-251) was 33.7 µM (inactive), the GI50 (OVCAR-4) was 24.5 µM (inactive) and the GI50 (IGROV-1) was 34.5 µM (inactive). The GI50 (SNB-78) was 71 µM (inactive), the GI50 (XF498) was 32.2 µM (inactive) and the GI50 (SW-620) was 59 µM (inactive). The GI50 (OVCAR-5) was 23.9 µM (inactive), the GI50 (OVCAR-3) was 27.5 µM (inactive) and the GI50 (SN12C) was 31.9 µM (inactive). The GI50 (COLO 205) was 51.5 µM (inactive), the GI50 (UACC-62) was 25.4 µM (inactive) and the GI50 (CAKI-1) was 46.1 µM (inactive). The GI50 (SK-MEL-28) was 41.5 µM (inactive), the GI50 (A549) was 35.7 µM (inactive) and the GI50 (OVCAR-8) was 48.1 µM (inactive).

With `CCCCCCCCCCCCC(CCCCCCCCCCCC)OP(=O)(O)O` the GI50 (HCT-116) was 73.3 µM (inactive), the GI50 (SR) was > 100 µM (inactive) and the GI50 (UO-31) was 55.6 µM (inactive). For the same molecule, the GI50 (SF-268) was > 100 µM (inactive), the GI50 (HT-29) was > 100 µM (inactive) and the GI50 (RPMI-8226) was 56.6 µM (inactive). The GI50 (LOX IMVI) was > 100 µM (inactive), the GI50 (SNB-75) was 43.4 µM (inactive) and the GI50 (MOLT-4) was 59.2 µM (inactive). For the same molecule, the GI50 (ACHN) was 76.2 µM (inactive), the GI50 (NCI-H522) was 84.7 µM (inactive) and the GI50 (SK-MEL-2) was 65.2 µM (inactive). The GI50 (RXF 631) was 94.4 µM (inactive), the GI50 (CCRF-CEM) was > 100 µM (inactive) and the GI50 (SK-OV-3) was > 100 µM (inactive). For the same molecule, the GI50 (TK-10) was > 100 µM (inactive), the GI50 (K562) was 62.2 µM (inactive) and the GI50 (KM-20L2) was > 100 µM (inactive). The GI50 (SF-539) was 46.2 µM (inactive), the GI50 (A498) was 20.6 µM (inactive) and the GI50 (SK-MEL-5) was > 100 µM (inactive). For the same molecule, the GI50 (LXFL 529) was > 100 µM (inactive), the GI50 (NCI-H460) was > 100 µM (inactive) and the GI50 (EKVX) was > 100 µM (inactive). The GI50 (DMS-114) was > 100 µM (inactive), the GI50 (HCC 2998) was > 100 µM (inactive) and the GI50 (UACC-257) was > 100 µM (inactive). For the same molecule, the GI50 (KM12) was > 100 µM (inactive), the GI50 (SNB-19) was 91.6 µM (inactive) and the GI50 (NCI-H23) was > 100 µM (inactive). The GI50 (HOP-92) was 56.1 µM (inactive), the GI50 (NCI-H226) was 75.9 µM (inactive) and the GI50 (HOP-62) was > 100 µM (inactive). The GI50 (DLD-1) was > 100 µM (inactive), the GI50 (M14) was > 100 µM (inactive) and the GI50 (SF-295) was > 100 µM (inactive). For the same molecule, the GI50 (HOP-18) was > 100 µM (inactive), the GI50 (DMS-273) was > 100 µM (inactive) and the GI50 (M19-MEL) was > 100 µM (inactive). The GI50 (HL-60) was 47.3 µM (inactive), the GI50 (HCT-15) was 88.3 µM and the GI50 (786-0) was > 100 µM (inactive). For the same molecule, the GI50 (RXF 393) was > 100 µM (inactive), the GI50 (Malme-3M) was > 100 µM (inactive) and the GI50 (U-251) was 34 µM (inactive). For the same molecule, the GI50 (OVCAR-4) was > 100 µM (inactive), the GI50 (IGROV-1) was 87.3 µM (inactive) and the GI50 (SNB-78) was > 100 µM (inactive). The GI50 (XF498) was > 100 µM (inactive), the GI50 (SW-620) was > 100 µM (inactive) and the GI50 (OVCAR-5) was > 100 µM (inactive). The GI50 (OVCAR-3) was > 100 µM (inactive), the GI50 (SN12C) was > 100 µM (inactive) and the GI50 (COLO 205) was > 100 µM (inactive). The GI50 (UACC-62) was > 100 µM (inactive), the GI50 (CAKI-1) was > 100 µM (inactive) and the GI50 (SK-MEL-28) was > 100 µM (inactive). The GI50 (A549) was > 100 µM (inactive) and the GI50 (OVCAR-8) was > 100 µM (inactive).

— ChEMBL document CHEMBL1201862, “PubChem BioAssay data set” (2004)
